From US10953099B2, “Compositions comprising a metal source, dithiocarbamate and cyclodextrin” (priority 2016, dated 2021)

Columns and labels:
H209 SCLC cells = test: H209 SCLC tumor relapse model in mice; type: in vivo, nu/nu mice; conditions: after 6 weeks DKFZ-00608 15 mg/kg daily in 60 mM sulfobutyl ether beta-cyclodextrin
Experimental: The inventors wanted to compare the efficacy of DKFZ-00608 on human SCLC tumors with standard therapy in vivo. […] Followed by DKFZ-00608 in 60 mM sulfobutyl ether beta-cyclodextrin (15 mg/kg daily) for 6 weeks • DKFZ-00608 in 60 mM sulfobutyl ether beta-cyclodextrin (15 mg/kg daily) for 6 weeks. Tumor sizes were determined 2× per week for the first 9 weeks, thereafter, once per week.

[1] = tested on: Raji human B-cell lymphoma cells; test: Cell-titer-blue viability, Raji; type: cell-based; conditions: in presence of sulfobutyl ether-β-cyclodextrin, 72 h
Experimental: (§1) The anti-tumoral efficacy of a panel of 7 different Au complexes, ATM/Disulfiram, the standard therapeutic Cisplatin and well known antitumoral CuDTC (see Table 2) was tested on Jurkat human T-cell leukemia and Raji human B-cell lymphoma cells. […] 24 h later, test compound were added in the presence of sulfobutyl ether-β-cyclodextrin (30 fold disulfiram concentration) in various dilutions (100-0.01 μM). All concentrations were applied in triplicate. […] The “Factor of Selectivity for T-cell Leukemia” was calculated by division of IC50 on Raji cells/IC50 on Jurkat cells.

[2] = tested on: Jurkat human T-cell leukemia cells; test: Cell-titer-blue viability, Jurkat; type: cell-based; conditions: for selectivity for Jurkat IC50 Raji/IC50 Jurkat (Factor of Selectivity for T-cell Leukemia): IC50 on Raji cells/IC50 on Jurkat cells; for IC50: in presence of sulfobutyl ether-β-cyclodextrin, 72 h
Experimental: as §1

| SMILES | animals with no palpable tumors (H209 SCLC cells) | IC50 [1] | selectivity for Jurkat IC50 Raji/IC50 Jurkat (Factor of Selectivity for T-cell Leukemia) [2] | IC50 [2] |
| --- | --- | --- | --- | --- |
| CCN(CC)/C1=[SH]/[Au][S]/C(N(CC)CC)=[SH]\[Au][S]1 [DKFZ-00608] | 6 out of 10 | – | – | – |
| CCN(CC)C(=S)[S-].CCN(CC)C(=S)[S-].[Cu+2] [CuDTC] | – | 20 nM | 2.62 | 10 nM |
| N.N.[Cl][Pt][Cl] [Cisplatin] | – | 2720 nM | 4.45 | 610 nM |
